Source: patent EP0635494A1, “2-(Imidazol-1-yl)2-benzylethylidene-aminooxyalkyl-hydroxamic acid derivatives” (PHARMACIA S.p.A., priority 1993, dated 1995)

Experiments:
[1] = target: T1, TxA₂ Synthase (Rattus norvegicus, UniProt P49430); conditions: statement on the known compound, no data shown; cited from earlier work
T1 construct: Blood was withdrawn from the abdominal aorta of the animals under light ether anesthesia; from tissue; host or cells: rat whole blood (clotting, serum TxB₂ by RIA)
T1 sequence (P49430 1-533): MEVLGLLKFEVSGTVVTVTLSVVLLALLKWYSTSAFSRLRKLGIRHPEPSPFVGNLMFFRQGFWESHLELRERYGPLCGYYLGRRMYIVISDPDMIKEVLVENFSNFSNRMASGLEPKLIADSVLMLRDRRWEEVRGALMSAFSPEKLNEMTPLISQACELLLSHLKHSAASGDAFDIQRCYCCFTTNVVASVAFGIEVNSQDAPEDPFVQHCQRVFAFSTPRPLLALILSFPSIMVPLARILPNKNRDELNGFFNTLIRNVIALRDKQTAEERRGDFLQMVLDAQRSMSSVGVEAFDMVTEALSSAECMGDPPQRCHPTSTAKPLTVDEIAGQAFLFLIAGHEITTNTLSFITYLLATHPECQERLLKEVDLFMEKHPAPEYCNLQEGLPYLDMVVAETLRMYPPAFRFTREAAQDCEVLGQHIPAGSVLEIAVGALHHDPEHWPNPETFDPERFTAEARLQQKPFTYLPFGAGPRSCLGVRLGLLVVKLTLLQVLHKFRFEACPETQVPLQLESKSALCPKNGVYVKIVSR

[2] = target: T2, TxA₂ receptor (Homo sapiens, UniProt P21731); assay: [³H]-SQ 29,548 binding displacement in washed human platelets (TxA₂ antagonism); conditions: result in words, compared with Sulotroban (BM 13177)
T2 construct: endogenous in cells; host or cells: washed human platelets from healthy volunteers
T2 sequence (P21731 1-343): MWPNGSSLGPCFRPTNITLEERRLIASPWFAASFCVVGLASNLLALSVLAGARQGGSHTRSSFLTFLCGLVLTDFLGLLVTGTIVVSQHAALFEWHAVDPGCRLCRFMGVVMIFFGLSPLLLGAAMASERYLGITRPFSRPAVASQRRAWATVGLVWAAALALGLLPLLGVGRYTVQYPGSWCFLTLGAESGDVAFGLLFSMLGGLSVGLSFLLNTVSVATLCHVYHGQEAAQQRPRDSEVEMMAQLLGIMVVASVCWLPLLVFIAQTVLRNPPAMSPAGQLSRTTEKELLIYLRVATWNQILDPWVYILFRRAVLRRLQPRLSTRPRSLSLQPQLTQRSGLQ
Method: The experiments were carried out as follows: Blood from healthy volunteers of both sexes who had not taken any medication for at least 10 days was collected into one-tenth volume of acid citrate dextrose containing indomethacin (28 µM). Platelet rich plasma (PRP), obtained by centrifugation of the blood at 200 x g for 20 min, was washed twice (1000 x g for 10 min). The platelets were then resuspended in Tyrode-Hepes buffer (pH 7.4) to a final concentration of 5-10x10⁻⁸ cells/ml and incubated for 0-60 min at 25°C with [³H]-SQ 29,548 (5 nM). For displacement experiments various concentrations (10⁻⁹ -10⁻⁴M) of competing ligands were added and incubated for 30 min at 25°C.
Non-specific binding was determined in the presence of 50 µM U46619 and was approximately 5% of total binding of [³H]-SQ 29,548. After incubation, 4 ml of ice-cold TRIS-HCl buffer (10 mM, pH 7.4) was added to each tube and the reaction mixture was immediately filtered by suction through a Whatman GE/C glass filter disc which was washed 2 times with ice-cold TRIS-HCl (4 ml) and counted for radioactivity by a Packard-β-counter.
The binding data were analyzed by computerized non-linear curve fitting using the Ligand program and expressed as IC₅₀.

[3] = target: T1, TxA₂ Synthase; assay: In vitro effects on TxB₂ production in rat whole blood during clotting (TxA₂ synthesis, RIA); type: cell-based; conditions: result in words, compared with reference compound Dazoxiben
Method: The compounds of formula (I) were for example tested for their ability to inhibit TxA₂ Synthase activity (as reflected by TxB₂ generated in whole blood during clotting or in isolated glomeruli) in vitro in the rat. The in vitro experiments were carried out as follows: The effect of the compounds on TxA₂ synthesis was evaluated in serum.
Blood was withdrawn from the abdominal aorta of the animals under light ether anesthesia.
Samples were then allowed to clot for 1 h at 37°C, centrifuged at 3000 rpm for 10 min, serum collected and stored at -20°C until assayed. TxB₂ levels were determined by RIA according to previously described procedures [Patrono et al. - Thromb.

Compound	TxA₂ synthase inhibitory activity [1]	affinity for the receptor [2]	inhibitory activity on TxA₂ synthesis [3]
O=C(O)COc1ccc(CCNS(=O)(=O)c2ccccc2)cc1 [BM 13177, Sulotroban]	devoid of TxA₂ synthase inhibitory activity		
Cc1ccc(CC(/C(=N/OCCCCC(=O)O)C2CCCCC2)n2ccnc2)cc1 (racemic) [FCE 27818, (±)-(E)-5-[2-(4-methylbenzyl)-2-(imidazol-1-yl)-1-cyclohexylethylidene]aminooxypentanoic acid]		good affinity for the receptor which is better than that shown by the known compound Sulotroban (BM 13177)	marked inhibitory activity on TxA₂ synthesis significantly more potent than that of reference compound Dazoxiben
(±)-(E)-5-[2-benzyl-2-(imidazol-1-yl)-1-cyclohexylethylidene]-aminooxybutanohydroxamic acid [FCE 27790]		good affinity for the receptor which is better than that shown by the known compound Sulotroban (BM 13177)	marked inhibitory activity on TxA₂ synthesis significantly more potent than that of reference compound Dazoxiben
